Values quoted from earlier work, collected in patent US12528029B2, “Separating and quantifying unbound target analytes from biological samples” (ARUP Laboratories, Inc., priority 2017, dated 2026).

How the values were obtained:
[1] = molecular target: T1, vitamin D binding protein (VDBP) (Homo sapiens, UniProt P02774); details: serum
T1 construct: host or cells: circulating blood / serum
T1 sequence (P02774 17-474): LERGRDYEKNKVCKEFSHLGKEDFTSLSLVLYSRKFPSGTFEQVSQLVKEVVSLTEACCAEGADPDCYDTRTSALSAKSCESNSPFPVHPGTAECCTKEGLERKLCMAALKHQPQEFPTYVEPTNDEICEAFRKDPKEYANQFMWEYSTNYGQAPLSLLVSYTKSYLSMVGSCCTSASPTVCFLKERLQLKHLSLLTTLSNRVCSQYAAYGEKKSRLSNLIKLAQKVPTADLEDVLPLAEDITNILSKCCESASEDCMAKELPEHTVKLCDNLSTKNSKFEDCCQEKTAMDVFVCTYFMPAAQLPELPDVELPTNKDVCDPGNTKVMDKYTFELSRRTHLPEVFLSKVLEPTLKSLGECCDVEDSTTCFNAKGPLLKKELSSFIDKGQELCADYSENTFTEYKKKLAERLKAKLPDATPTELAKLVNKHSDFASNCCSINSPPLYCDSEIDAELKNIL

albumin = molecular target: T2, albumin (Homo sapiens, UniProt P02768)
T2 construct: host or cells: circulating blood / serum

[2] = molecular target: T3, sex hormone-binding globulin (SHBG) (Homo sapiens, UniProt P04278); details: share of the protein-bound Te; remainder weakly bound to albumin
T3 sequence (P04278 30-402): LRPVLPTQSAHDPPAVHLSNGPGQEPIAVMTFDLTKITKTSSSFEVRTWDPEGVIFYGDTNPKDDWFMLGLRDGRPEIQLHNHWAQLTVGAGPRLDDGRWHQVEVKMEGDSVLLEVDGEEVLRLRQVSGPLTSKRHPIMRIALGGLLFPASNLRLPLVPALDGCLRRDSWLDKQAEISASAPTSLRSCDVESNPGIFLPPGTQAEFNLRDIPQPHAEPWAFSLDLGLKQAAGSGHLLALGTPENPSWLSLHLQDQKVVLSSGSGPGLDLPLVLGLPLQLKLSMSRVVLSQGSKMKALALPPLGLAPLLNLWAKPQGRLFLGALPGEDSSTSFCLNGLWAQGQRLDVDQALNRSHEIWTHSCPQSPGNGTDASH

T2 sequence (P02768 25-609): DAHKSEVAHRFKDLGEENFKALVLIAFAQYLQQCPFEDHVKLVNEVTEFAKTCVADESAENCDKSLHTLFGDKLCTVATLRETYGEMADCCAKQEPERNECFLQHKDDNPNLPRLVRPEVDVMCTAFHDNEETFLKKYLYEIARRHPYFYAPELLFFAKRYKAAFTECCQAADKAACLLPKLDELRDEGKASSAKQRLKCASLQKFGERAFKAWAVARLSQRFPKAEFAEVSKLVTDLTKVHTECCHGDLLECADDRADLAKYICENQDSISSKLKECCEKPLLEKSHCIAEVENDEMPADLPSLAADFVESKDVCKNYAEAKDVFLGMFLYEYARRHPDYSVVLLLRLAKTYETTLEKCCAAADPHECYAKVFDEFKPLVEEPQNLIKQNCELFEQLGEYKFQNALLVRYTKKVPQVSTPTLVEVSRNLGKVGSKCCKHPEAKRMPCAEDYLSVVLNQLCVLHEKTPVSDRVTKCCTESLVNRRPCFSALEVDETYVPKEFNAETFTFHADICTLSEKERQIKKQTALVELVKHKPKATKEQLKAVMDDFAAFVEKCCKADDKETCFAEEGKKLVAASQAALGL

| Compound | circulating vitamin D in the form of 25OHD, tightly bound to VDBP [1] | 25OHD circulating in blood bound to albumin (albumin) | circulating 25OHD that is free (not protein bound) (circulating) | fraction of Te present in unbound, free form (circulating in blood) | protein bound Te strongly bound to SHBG [2] |
| --- | --- | --- | --- | --- | --- |
| 25-hydroxy vitamin D [25OHD] | 85-90% | 10-15% | Less than 0.1% | – | – |
| C[C@]12CC[C@H]3[C@@H](CCC4=CC(=O)CC[C@@]43C)[C@@H]1CC[C@@H]2O [Te, Testosterone] | – | – | – | 1-3% | 60-70% |
